From PubChem BioAssay AID1259411 (Chemical Carcinogenesis Research Information System (CCRIS), 2018)
The source made the active and inactive calls. How the calls were made is not given here.

Test system: rodent carcinogenicity bioassays, tumor incidence
Assay: CCRIS carcinogenicity studies
How it was run: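 Archive of carcinogenicity, mutagenicity, tumor promotion and tumor inhibition results drawn from journals, NCI reports and other sources, expert-reviewed; covers 1985-2011 and is no longer updated.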

Clc1ccccc1Cl
carcinogen call (Species: MOUSE, Strain/Sex: B6C3F1/FEMALE, Route: GAVAGE, Dose: 0, 60, 120 MG/KG BODY WT IN CORN OIL 5 D/WK FOR 103 WK, Dose: 0, 60, 120 MG/KG BODY WT IN CORN OIL 5 D/WK FOR 103 WK): inactive; negative
carcinogen call (Species: MOUSE, Strain/Sex: B6C3F1/MALE, Route: GAVAGE, Dose: 0, 60, 120 MG/KG BODY WT IN CORN OIL 5 D/WK FOR 103 WK, Dose: 0, 60, 120 MG/KG BODY WT IN CORN OIL 5 D/WK FOR 103 WK): inactive; negative
carcinogen call (Species: RAT, Strain/Sex: F344/FEMALE, Route: GAVAGE, Dose: 0, 60, 120 MG/KG BODY WT IN CORN OIL 5 D/WK FOR 103 WK, Dose: 0, 60, 120 MG/KG BODY WT IN CORN OIL 5 D/WK FOR 103 WK): inactive; negative
carcinogen call (Species: RAT, Strain/Sex: F344/MALE, Route: GAVAGE, Dose: 0, 60, 120 MG/KG BODY WT IN CORN OIL 5 D/WK FOR 103 WK, Dose: 0, 60, 120 MG/KG BODY WT IN CORN OIL 5 D/WK FOR 103 WK): inactive; negative

NC(N)=NC(N)=NCCc1ccccc1
carcinogen call (Species: MOUSE, Strain/Sex: B6C3F1/FEMALE, Route: ORAL, Dose: 0, 1200, 2500 PPM IN DIET, Dose: 0, 1200, 2500 PPM IN DIET): inactive; negative
carcinogen call (Species: MOUSE, Strain/Sex: B6C3F1/MALE, Route: ORAL, Dose: 0, 1200, 2500 PPM IN DIET, Dose: 0, 1200, 2500 PPM IN DIET): inactive; negative
carcinogen call (Species: RAT, Strain/Sex: F344/FEMALE, Route: ORAL, Dose: 0, 15000, 30000 PPM IN DIET, Dose: 0, 15000, 30000 PPM IN DIET): inactive; negative
carcinogen call (Species: RAT, Strain/Sex: F344/MALE, Route: ORAL, Dose: 0, 15000, 30000 PPM IN DIET, Dose: 0, 15000, 30000 PPM IN DIET): inactive; negative

O=C(O)CO
carcinogen call (Species: Mouse, Strain/Sex: SKH-1/Female (18/Group), Route: Dermal, Dose: 0, 4, 10% administered as topical cream (pH 3.5) , 5 d/wk, 40 wk, animals held an additional 12 wk for study duration of, Tumor Site: Type of Lesion: Skin: Carcinoma in situ, squamous cell carcinoma, basal cell carcinoma): inactive; negative. when synthetic solar light (ssl) at 0.3 and 0.6 the minimal erythema d
carcinogen call (Species: Mouse, Strain/Sex: SKH-1/Male (18/Group), Route: Dermal, Dose: 0, 4, 10% administered as topical cream (pH 3.5) , 5 d/wk, 40 wk, animals held an additional 12 wk for study duration of, Tumor Site: Type of Lesion: Skin: Carcinoma in situ, squamous cell carcinoma, basal cell carcinoma): inactive; negative. when synthetic solar light (ssl) at 0.3 and 0.6 the minimal erythema d

C=CSCCC(N)C(=O)O (centres undefined)
carcinogen call (Species: RAT, Strain/Sex: F344/MALE, Route: INTRAPERITONEAL, Dose: 0, 50-100 MG/KG 5 D/WK FOR 12 WK, STUDY DURATION: 25 MO, Dose: 0, 50-100 MG/KG 5 D/WK FOR 12 WK, STUDY DURATION: 25 MO, Tumor Site: Type of Lesion: LIVER: HEPATOCELLULAR CARCINOMA): active; positive
carcinogen call (Species: RAT, Strain/Sex: F344/MALE, Route: ORAL, Dose: 0, 0.05% IN METHYL-DEFICIENT DIET FOR 20 MO, Tumor Site: Type of Lesion: LIVER: HEPATOCELLULAR CARCINOMA): active; positive

Cc1c(N)nc([C@H](CC(N)=O)NC[C@H](N)C(N)=O)nc1C(=O)N[C@H](C(=O)N[C@H](C)[C@@H](O)[C@H](C)C(=O)N[C@H](C(=O)NCCc1nc(-c2nc(C(=O)NCCCN[C@@H](C)c3ccccc3)cs2)cs1)[C@@H](C)O)[C@@H](O[C@@H]1O[C@@H](CO)[C@@H](O)[C@H](O)[C@@H]1O[C@H]1O[C@H](CO)[C@@H](O)[C@H](OC(N)=O)[C@@H]1O)c1cnc[nH]1
carcinogen call (Species: RAT, Strain/Sex: SPRAGUE-DAWLEY/FEMALE, Route: SUBCUTANEOUS, Dose: 0, 0.32, 0.63, 1.25, 2.50, 5.0 MG/KG IN SALINE 1/WK FOR 10 WK THEN 1/2 WK FOR 12 WK, 19 WK OR LIFETIME (STUDY DURATION:, Dose: 0, 0.32, 0.63, 1.25, 2.50, 5.0 MG/KG IN SALINE 1/WK FOR 10 WK THEN 1/2 WK FOR 12 WK, 19 WK OR LIFETIME (STUDY DURATION:, Tumor Site: Type of Lesion: KIDNEY: MALIGNANT OR BENIGN TUMOR, INJECTION SITE: MALIGNANT TUMOR): active; positive
carcinogen call (Species: RAT, Strain/Sex: SPRAGUE-DAWLEY/MALE, Route: SUBCUTANEOUS, Dose: 0, 0.32, 0.63, 1.25, 2.50, 5.0 MG/KG IN SALINE 1/WK FOR 10 WK THEN 1/2 WK FOR 12 WK, 19 WK OR LIFETIME (STUDY DURATION:, Dose: 0, 0.32, 0.63, 1.25, 2.50, 5.0 MG/KG IN SALINE 1/WK FOR 10 WK THEN 1/2 WK FOR 12 WK, 19 WK OR LIFETIME (STUDY DURATION:, Tumor Site: Type of Lesion: KIDNEY: MALIGNANT OR BENIGN TUMOR, INJECTION SITE: MALIGNANT TUMOR): active; positive
